# Test system: not given
# Test: not given
# Conditions: not given
row,SMILES,melting point
1,C/C(=N\NC(=O)c1cccc(Cl)c1)c1cccc(Cl)c1O [Example 497],197 to 219 °C
2,C/C(=N\NC(=O)c1ccc(Cl)cc1)c1cccc(Cl)c1O [Example 498],208 to 209 °C
3,COc1ccc(C(=O)N/N=C(\C)c2cccc(Cl)c2O)cc1 [Example 499],203 to 204 °C
4,C/C(=N\NC(=O)c1ccc(Br)cc1)c1cccc(Cl)c1O [Example 500],226 to 232 °C
5,C/C(=N\NC(=O)c1ccc(C(F)(F)F)cc1)c1cccc(Cl)c1O [Example 501],250 to 256 °C
6,C/C(=N\NC(=O)c1ccccc1Br)c1cccc(Cl)c1O [Example 502],178 to 183 °C
7,C/C(=N\NC(=O)c1ccccc1O)c1cccc(Cl)c1O [Example 503],283 to 287 °C
8,C/C(=N\NC(=O)c1ccccc1C)c1cc(Cl)ccc1O [Example 505],192 to 193 °C
9,C/C(=N\NC(=O)c1cccc(C)c1)c1cc(Cl)ccc1O [Example 506],222 to 228 °C
10,C/C(=N\NC(=O)c1ccc(C)cc1)c1cc(Cl)ccc1O [Example 507],221 to 228 °C
11,C/C(=N\NC(=O)c1ccccc1Cl)c1cc(Cl)ccc1O [Example 508],210 to 217 °C
12,C/C(=N\NC(=O)c1cccc(Cl)c1)c1cc(Cl)ccc1O [Example 509],244 to 249 °C
13,C/C(=N\NC(=O)c1ccc(Cl)cc1)c1cc(Cl)ccc1O [Example 510],248 to 252 °C
14,COc1ccc(C(=O)N/N=C(\C)c2cc(Cl)ccc2O)cc1 [Example 511],203 to 228 °C
15,C/C(=N\NC(=O)c1ccc(Br)cc1)c1cc(Cl)ccc1O [Example 512],269 to 271 °C
16,C/C(=N\NC(=O)c1ccc(C(F)(F)F)cc1)c1cc(Cl)ccc1O [Example 513],271 to 273 °C

row,SMILES,melting point
1,C/C(=N\NC(=O)c1ccccc1Br)c1cc(Cl)ccc1O [Example 514],222 to 225 °C
2,C/C(=N\NC(=O)c1ccccc1O)c1cc(Cl)ccc1O [Example 515],298 to 318 °C
3,COc1ccc(C(=O)N/N=C(\C)c2cc(Br)ccc2O)cc1 [Example 516],202 to 252 °C
4,C/C(=N\NC(=O)c1ccc(Br)cc1)c1cc(Br)ccc1O [Example 517],270 to 275 °C
5,C/C(=N\NC(=O)c1ccc(C(F)(F)F)cc1)c1cc(Br)ccc1O [Example 518],272 to 280 °C
6,C/C(=N\NC(=O)c1ccccc1Br)c1cc(Br)ccc1O [Example 519],216 to 218 °C
7,C/C(=N\NC(=O)c1ccccc1O)c1cc(Br)ccc1O [Example 520],281 to 303 °C
8,COc1ccc(C(=O)N/N=C(\C)c2cccc([N+](=O)[O-])c2O)cc1 [Example 521],204 to 212 °C
9,C/C(=N\NC(=O)c1ccc(Br)cc1)c1cccc([N+](=O)[O-])c1O [Example 522],244 to 252 °C
10,C/C(=N\NC(=O)c1ccc(C(F)(F)F)cc1)c1cccc([N+](=O)[O-])c1O [Example 523],267 to 278 °C
11,C/C(=N\NC(=O)c1ccccc1Br)c1cccc([N+](=O)[O-])c1O [Example 524],186 to 188 °C
12,C/C(=N\NC(=O)c1ccccc1O)c1cccc([N+](=O)[O-])c1O [Example 525],274 to 283 °C
13,C/C(=N\NC(=O)c1ccccc1)c1cc(C(F)(F)F)ccc1O [Example 527],226 to 229 °C
14,C/C(=N\NC(=O)c1ccccc1C)c1cc(C(F)(F)F)ccc1O [Example 528],200 to 203 °C
15,C/C(=N\NC(=O)c1cccc(C)c1)c1cc(C(F)(F)F)ccc1O [Example 529],235 to 238 °C

# Test system: Phytophthora infestans
# Test: not given
# Assay type: in vivo, Phytophthora infestans on tomato
# Conditions: hydrazone 50 ppm with 50 μM CuCl2.2H2O, applied 24 h before inoculation; assessed 7 days after inoculation; tomato late blight
row,SMILES,TLB % Control
1,C/C(=N\NC(=O)c1cccc(Cl)c1)c1cccc(Cl)c1O [Example 497],75.0%
2,C/C(=N\NC(=O)c1ccc(Cl)cc1)c1cccc(Cl)c1O [Example 498],85.0%
3,COc1ccc(C(=O)N/N=C(\C)c2cccc(Cl)c2O)cc1 [Example 499],85.0%
4,C/C(=N\NC(=O)c1ccc(Br)cc1)c1cccc(Cl)c1O [Example 500],80.0%
5,C/C(=N\NC(=O)c1ccc(C(F)(F)F)cc1)c1cccc(Cl)c1O [Example 501],89.0%
6,C/C(=N\NC(=O)c1ccccc1Br)c1cccc(Cl)c1O [Example 502],85.0%
7,C/C(=N\NC(=O)c1ccccc1O)c1cccc(Cl)c1O [Example 503],66.0%
8,C/C(=N\NC(=O)c1ccccc1C)c1cc(Cl)ccc1O [Example 505],46.0%
9,C/C(=N\NC(=O)c1cccc(C)c1)c1cc(Cl)ccc1O [Example 506],44.0%
10,C/C(=N\NC(=O)c1ccc(C)cc1)c1cc(Cl)ccc1O [Example 507],66.0%
11,C/C(=N\NC(=O)c1ccccc1Cl)c1cc(Cl)ccc1O [Example 508],92.0%
12,C/C(=N\NC(=O)c1cccc(Cl)c1)c1cc(Cl)ccc1O [Example 509],85.0%
13,C/C(=N\NC(=O)c1ccc(Cl)cc1)c1cc(Cl)ccc1O [Example 510],56.0%
14,COc1ccc(C(=O)N/N=C(\C)c2cc(Cl)ccc2O)cc1 [Example 511],73.0%
15,C/C(=N\NC(=O)c1ccc(Br)cc1)c1cc(Cl)ccc1O [Example 512],59.0%
16,C/C(=N\NC(=O)c1ccc(C(F)(F)F)cc1)c1cc(Cl)ccc1O [Example 513],53.0%

row,SMILES,TLB % Control
1,C/C(=N\NC(=O)c1ccccc1Br)c1cc(Cl)ccc1O [Example 514],75.0%
2,C/C(=N\NC(=O)c1ccccc1O)c1cc(Cl)ccc1O [Example 515],47.0%
3,COc1ccc(C(=O)N/N=C(\C)c2cc(Br)ccc2O)cc1 [Example 516],59.0%
4,C/C(=N\NC(=O)c1ccc(Br)cc1)c1cc(Br)ccc1O [Example 517],56.0%
5,C/C(=N\NC(=O)c1ccc(C(F)(F)F)cc1)c1cc(Br)ccc1O [Example 518],58.0%
6,C/C(=N\NC(=O)c1ccccc1Br)c1cc(Br)ccc1O [Example 519],88.0%
7,C/C(=N\NC(=O)c1ccccc1O)c1cc(Br)ccc1O [Example 520],49.0%
8,COc1ccc(C(=O)N/N=C(\C)c2cccc([N+](=O)[O-])c2O)cc1 [Example 521],83.0%
9,C/C(=N\NC(=O)c1ccc(Br)cc1)c1cccc([N+](=O)[O-])c1O [Example 522],95.0%
10,C/C(=N\NC(=O)c1ccc(C(F)(F)F)cc1)c1cccc([N+](=O)[O-])c1O [Example 523],92.0%
11,C/C(=N\NC(=O)c1ccccc1Br)c1cccc([N+](=O)[O-])c1O [Example 524],39.0%
12,C/C(=N\NC(=O)c1ccccc1O)c1cccc([N+](=O)[O-])c1O [Example 525],78.0%
13,C/C(=N\NC(=O)c1ccccc1)c1cc(C(F)(F)F)ccc1O [Example 527],78.0%
14,C/C(=N\NC(=O)c1ccccc1C)c1cc(C(F)(F)F)ccc1O [Example 528],73.0%
15,C/C(=N\NC(=O)c1cccc(C)c1)c1cc(C(F)(F)F)ccc1O [Example 529],46.0%

# Test system: Leptosphaeria nodorum (LEPTNO)
# Test: In vitro fungitoxicity of hydrazones with and without copper towards Leptosphaeria nodorum (Example 26)
# Assay type: cell-based
# Conditions: Parastagonospora nodorum, 72 h, copper-minus medium; test compound Concn. 0.05 μg/mL; 72 h at 25° C.; read-out: LEPTNO % Inhn. Minus Copper Observed
row,SMILES,inhibition of growth at 0.05 µg/mL
1,C/C(=N\NC(=O)c1cccc(Cl)c1)c1cccc(Cl)c1O [Example 497],0%
2,C/C(=N\NC(=O)c1ccc(Cl)cc1)c1cccc(Cl)c1O [Example 498],0%
3,COc1ccc(C(=O)N/N=C(\C)c2cccc(Cl)c2O)cc1 [Example 499],0%
4,C/C(=N\NC(=O)c1ccc(Br)cc1)c1cccc(Cl)c1O [Example 500],9.2%
5,C/C(=N\NC(=O)c1ccc(C(F)(F)F)cc1)c1cccc(Cl)c1O [Example 501],0.5%
6,C/C(=N\NC(=O)c1ccccc1Br)c1cccc(Cl)c1O [Example 502],4.2%
7,C/C(=N\NC(=O)c1ccccc1O)c1cccc(Cl)c1O [Example 503],5.2%
8,C/C(=N\NC(=O)c1ccccc1C)c1cc(Cl)ccc1O [Example 505],7.1%
9,C/C(=N\NC(=O)c1cccc(C)c1)c1cc(Cl)ccc1O [Example 506],2.7%
10,C/C(=N\NC(=O)c1ccc(C)cc1)c1cc(Cl)ccc1O [Example 507],7.6%
11,C/C(=N\NC(=O)c1ccccc1Cl)c1cc(Cl)ccc1O [Example 508],9.4%
12,C/C(=N\NC(=O)c1cccc(Cl)c1)c1cc(Cl)ccc1O [Example 509],0%
13,C/C(=N\NC(=O)c1ccc(Cl)cc1)c1cc(Cl)ccc1O [Example 510],6.2%
14,COc1ccc(C(=O)N/N=C(\C)c2cc(Cl)ccc2O)cc1 [Example 511],0%
15,C/C(=N\NC(=O)c1ccc(Br)cc1)c1cc(Cl)ccc1O [Example 512],7.4%
16,C/C(=N\NC(=O)c1ccc(C(F)(F)F)cc1)c1cc(Cl)ccc1O [Example 513],14%

row,SMILES,inhibition of growth at 0.05 µg/mL
1,C/C(=N\NC(=O)c1ccccc1Br)c1cc(Cl)ccc1O [Example 514],0%
2,C/C(=N\NC(=O)c1ccccc1O)c1cc(Cl)ccc1O [Example 515],0%
3,COc1ccc(C(=O)N/N=C(\C)c2cc(Br)ccc2O)cc1 [Example 516],0%
4,C/C(=N\NC(=O)c1ccc(Br)cc1)c1cc(Br)ccc1O [Example 517],0%
5,C/C(=N\NC(=O)c1ccc(C(F)(F)F)cc1)c1cc(Br)ccc1O [Example 518],24.2%
6,C/C(=N\NC(=O)c1ccccc1Br)c1cc(Br)ccc1O [Example 519],9.1%
7,C/C(=N\NC(=O)c1ccccc1O)c1cc(Br)ccc1O [Example 520],14.9%
8,COc1ccc(C(=O)N/N=C(\C)c2cccc([N+](=O)[O-])c2O)cc1 [Example 521],5%
9,C/C(=N\NC(=O)c1ccc(Br)cc1)c1cccc([N+](=O)[O-])c1O [Example 522],9.4%
10,C/C(=N\NC(=O)c1ccc(C(F)(F)F)cc1)c1cccc([N+](=O)[O-])c1O [Example 523],7%
11,C/C(=N\NC(=O)c1ccccc1Br)c1cccc([N+](=O)[O-])c1O [Example 524],9.3%
12,C/C(=N\NC(=O)c1ccccc1O)c1cccc([N+](=O)[O-])c1O [Example 525],5.4%
13,C/C(=N\NC(=O)c1ccccc1)c1cc(C(F)(F)F)ccc1O [Example 527],7.6%
14,C/C(=N\NC(=O)c1ccccc1C)c1cc(C(F)(F)F)ccc1O [Example 528],8.7%
15,C/C(=N\NC(=O)c1cccc(C)c1)c1cc(C(F)(F)F)ccc1O [Example 529],15.3%

# Same assay, conditions: copper-plus medium (CuCl2 10 μM); test compound Concn. 0.05 μg/mL; 72 h at 25° C.
row,SMILES,LEPTNO % Inhn. Plus Copper Observed
1,C/C(=N\NC(=O)c1cccc(Cl)c1)c1cccc(Cl)c1O [Example 497],98.1%
2,C/C(=N\NC(=O)c1ccc(Cl)cc1)c1cccc(Cl)c1O [Example 498],97.5%
3,COc1ccc(C(=O)N/N=C(\C)c2cccc(Cl)c2O)cc1 [Example 499],97.4%
4,C/C(=N\NC(=O)c1ccc(Br)cc1)c1cccc(Cl)c1O [Example 500],93.2%
5,C/C(=N\NC(=O)c1ccc(C(F)(F)F)cc1)c1cccc(Cl)c1O [Example 501],98.0%
6,C/C(=N\NC(=O)c1ccccc1Br)c1cccc(Cl)c1O [Example 502],97.2%
7,C/C(=N\NC(=O)c1ccccc1O)c1cccc(Cl)c1O [Example 503],97.0%
8,C/C(=N\NC(=O)c1ccccc1C)c1cc(Cl)ccc1O [Example 505],97.3%
9,C/C(=N\NC(=O)c1cccc(C)c1)c1cc(Cl)ccc1O [Example 506],97.5%
10,C/C(=N\NC(=O)c1ccc(C)cc1)c1cc(Cl)ccc1O [Example 507],97.0%
11,C/C(=N\NC(=O)c1ccccc1Cl)c1cc(Cl)ccc1O [Example 508],97.1%
12,C/C(=N\NC(=O)c1cccc(Cl)c1)c1cc(Cl)ccc1O [Example 509],96.2%
13,C/C(=N\NC(=O)c1ccc(Cl)cc1)c1cc(Cl)ccc1O [Example 510],95.5%
14,COc1ccc(C(=O)N/N=C(\C)c2cc(Cl)ccc2O)cc1 [Example 511],97.8%
15,C/C(=N\NC(=O)c1ccc(Br)cc1)c1cc(Cl)ccc1O [Example 512],97.8%
16,C/C(=N\NC(=O)c1ccc(C(F)(F)F)cc1)c1cc(Cl)ccc1O [Example 513],98.0%

row,SMILES,LEPTNO % Inhn. Plus Copper Observed
1,C/C(=N\NC(=O)c1ccccc1Br)c1cc(Cl)ccc1O [Example 514],97.7%
2,C/C(=N\NC(=O)c1ccccc1O)c1cc(Cl)ccc1O [Example 515],97.6%
3,COc1ccc(C(=O)N/N=C(\C)c2cc(Br)ccc2O)cc1 [Example 516],97.9%
4,C/C(=N\NC(=O)c1ccc(Br)cc1)c1cc(Br)ccc1O [Example 517],96.7%
5,C/C(=N\NC(=O)c1ccc(C(F)(F)F)cc1)c1cc(Br)ccc1O [Example 518],97.4%
6,C/C(=N\NC(=O)c1ccccc1Br)c1cc(Br)ccc1O [Example 519],95.7%
7,C/C(=N\NC(=O)c1ccccc1O)c1cc(Br)ccc1O [Example 520],96.7%
8,COc1ccc(C(=O)N/N=C(\C)c2cccc([N+](=O)[O-])c2O)cc1 [Example 521],95.9%
9,C/C(=N\NC(=O)c1ccc(Br)cc1)c1cccc([N+](=O)[O-])c1O [Example 522],97.3%
10,C/C(=N\NC(=O)c1ccc(C(F)(F)F)cc1)c1cccc([N+](=O)[O-])c1O [Example 523],97.7%
11,C/C(=N\NC(=O)c1ccccc1Br)c1cccc([N+](=O)[O-])c1O [Example 524],95.8%
12,C/C(=N\NC(=O)c1ccccc1O)c1cccc([N+](=O)[O-])c1O [Example 525],97.4%
13,C/C(=N\NC(=O)c1ccccc1)c1cc(C(F)(F)F)ccc1O [Example 527],97.6%
14,C/C(=N\NC(=O)c1ccccc1C)c1cc(C(F)(F)F)ccc1O [Example 528],97.7%
15,C/C(=N\NC(=O)c1cccc(C)c1)c1cc(C(F)(F)F)ccc1O [Example 529],97.7%

# Reference: patent US20120010075A1 (priority 2009, published 2012)
